Measured values taken from patent US20100215618A1, “NOVEL COMPOUNDS - 644” (Arrow Therapeutics Limited, priority 2009, published 2010).
Read-outs that look alike come from different tables or passages of the source.

Columns and labels:
[1] = system: HCV replicon cells Huh 9B; assay type: cell-based; conditions: Huh 9B replicon cells, 72 h, methylene blue, total cell area reduced by 50%
[2] = system: HCV genotype 1a replicon cells Htat2ANeo; experiment: 1a Replicon Assay (cell-based anti-NS5a ELISA); conditions: Hepatitis C virus, 72 h
Method in brief: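 HCV 1a Htat2ANeo replicon cells (Et2AN control cells) exposed to compound for 72 h at 37° C without G418/blasticidin. NS5a quantified by cell-based ELISA (anti-NS5a, HRP/OPD, A490); IC50 from percentage reduction versus untreated control. Cytotoxicity TD50 by Cell Titre Blue fluorescence (ex 570/em 590 nm) versus DMSO controls.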

[3] = read-out: pIC50 1a Replicon (converted)

SMILES	HCV TD50 Replicon [1] [µM]	IC50 ([2]; read-out: HCV IC50 Elisa 1a) [nM]	IC50 [2, 3] [nM]
COC(=O)N[C@H](C(=O)N1CCOC[C@H]1c1ncc(-c2ccc(-c3ccc(C(=O)Nc4ccc(CN5CCS(=O)(=O)CC5)cc4)cc3)cc2)[nH]1)c1ccccc1 [Example 47, Methyl N-[(1S)-2-[(3R)-3-[5-[4-[4-[[4-[(1,1-dioxo-1,4-thiazinan-4-yl)methyl]phenyl]carbamoyl]phenyl]phenyl]-1H-imidazol-2-yl]morpholin-4-yl]-2-oxo-1-phenyl-ethyl]carbamate]	>25	73.3	74.1
CCN(CC)[C@@H](C(=O)N1CCC[C@H]1c1ncc(-c2ccc(-c3ccc(C(=O)Nc4ccc(CN5CCS(=O)(=O)CC5)cc4)cc3)cc2)[nH]1)c1ccccc1 [Example 8, 4-[4-[2-[(2S)-1-[(2R)-2-(diethylamino)-2-phenyl-acetyl]pyrrolidin-2-yl]-1H-imidazol-5-yl]phenyl]-N-[4-[(1,1-dioxo-1,4-thiazinan-4-yl)methyl]phenyl]benzamide]	>25	4.75	4.79
COC(=O)N[C@@H](CC(C)C)C(=O)N1CCC[C@H]1c1ncc(-c2ccc(-c3ccc(C(=O)Nc4ccc(CN5CCS(=O)(=O)CC5)cc4)cc3)cc2)[nH]1 [Example 14, Methyl N-[(1S)-1-[(2S)-2-[5-[4-[4-[[4-[(1,1-dioxo-1,4-thiazinan-4-yl)methyl]phenyl]carbamoyl]phenyl]phenyl]-1H-imidazol-2-yl]pyrrolidine-1-carbonyl]-3-methyl-butyl]carbamate]	>25	15.7	15.8
CN(C)[C@@H](C(=O)N1CCC[C@H]1c1ncc(-c2ccc(-c3ccc(C(=O)Nc4ccc(CN5CCS(=O)(=O)CC5)cc4)cc3)cc2)[nH]1)c1ccccc1 [Example 9, 4-[4-[2-[(2S)-1-[(2R)-2-(dimethylamino)-2-phenyl-acetyl]pyrrolidin-2-yl]-1H-imidazol-5-yl]phenyl]-N-[4-[(1,1-dioxo-1,4-thiazinan-4-yl)methyl]phenyl]benzamide]	>25	13.2	13.2
COC(=O)N[C@@H](C(=O)N1CCC[C@H]1c1ncc(-c2ccc(-c3ccc(C(=O)Nc4ccc(CN5CCS(=O)(=O)CC5)cc4)cc3)cc2)[nH]1)c1ccccc1 [Example 7, Methyl N-[(1R)-2-[(2S)-2-[5-[4-[4-[[4-[(1,1-dioxo-1,4-thiazinan-4-yl)methyl]phenyl]carbamoyl]phenyl]phenyl]-1H-imidazol-2-yl]pyrrolidin-1-yl]-2-oxo-1-phenyl-ethyl]carbamate]	>25	32	32.4
CC(C)(C)OC(=O)N[C@@H](C(=O)N1CCC[C@H]1c1ncc(-c2ccc(-c3ccc(C(=O)Nc4ccc(CN5CCS(=O)(=O)CC5)cc4)cc3)cc2)[nH]1)c1ccccc1 [Example 2, Tert-butyl N-[(1R)-2-[(2S)-2-[5-[4-[4-[[4-[(1,1-dioxo-1,4-thiazinan-4-yl)methyl]phenyl]carbamoyl]phenyl]phenyl]-1H-imidazol-2-yl]pyrrolidin-1-yl]-2-oxo-1-phenyl-ethyl]carbamate]	>25	56	56.2
CC[C@H](C)[C@H](NC(=O)OC)C(=O)N1CCC[C@H]1c1ncc(-c2ccc(-c3ccc(C(=O)Nc4ccc(CN5CCS(=O)(=O)CC5)cc4)cc3)cc2)[nH]1 [Example 16, Methyl N-[(1S,2S)-1-[(2S)-2-[5-[4-[4-[[4-[(1,1-dioxo-1,4-thiazinan-4-yl)methyl]phenyl]carbamoyl]phenyl]phenyl]-1H-imidazol-2-yl]pyrrolidine-1-carbonyl]-2-methyl-butyl]carbamate]	>25	8.39	8.32
CCCS(=O)(=O)N1CCN(Cc2ccc(NC(=O)c3ccc(-c4ccc(-c5cnc([C@@H]6CCCN6C(=O)[C@@H](NC(=O)OC)C(C)C)[nH]5)cc4)cc3)cc2)CC1 [Example 40, Methyl N-[(1S)-2-methyl-1-[(2S)-2-[5-[4-[4-[[4-[(4-propylsulfonylpiperazin-1-yl)methyl]phenyl]carbamoyl]phenyl]phenyl]-1H-imidazol-2-yl]pyrrolidine-1-carbonyl]propyl]carbamate]		42.6	42.7
COC(=O)N[C@H](C(=O)N1CCC[C@@H]1c1ncc(-c2ccc(-c3ccc(C(=O)Nc4ccc(CN5CCS(=O)(=O)CC5)cc4)cc3)cc2)[nH]1)C(C)C [Example 20, Methyl N-[(1S)-1-[(2R)-2-[5-[4-[4-[[4-[(1,1-dioxo-1,4-thiazinan-4-yl)methyl]phenyl]carbamoyl]phenyl]phenyl]-1H-imidazol-2-yl]pyrrolidine-1-carbonyl]-2-methyl-propyl]carbamate]		1470	1480
COC(=O)N[C@H](C(=O)N1CCC[C@H]1c1ncc(-c2ccc(-c3ccc(C(=O)Nc4ccc(CN5CCS(=O)(=O)CC5)cc4)cc3)cc2)[nH]1)c1ccccc1 [Example 6, Methyl N-[(1S)-2-[(2S)-2-[5-[4-[4-[[4-[(1,1-dioxo-1,4-thiazinan-4-yl)methyl]phenyl]carbamoyl]phenyl]phenyl]-1H-imidazol-2-yl]pyrrolidin-1-yl]-2-oxo-1-phenyl-ethyl]carbamate]	>25	33.3	33.1
COC(=O)N[C@H](C(=O)N1CCC[C@H]1c1ncc(-c2ccc(-c3ccc(C(=O)Nc4ccc(CN5CCS(=O)(=O)CC5)cc4)cc3)cc2)[nH]1)C(C)(C)C [Example 5, Methyl N-[(1S)-1-[(2S)-2-[5-[4-[4-[[4-[(1,1-dioxo-1,4-thiazinan-4-yl)methyl]phenyl]carbamoyl]phenyl]phenyl]-1H-imidazol-2-yl]pyrrolidine-1-carbonyl]-2,2-dimethyl-propyl]carbamate]	3.9	33.1	33.1
COC(=O)N[C@H](C(=O)N1CCC[C@H]1c1ncc(-c2ccc(-c3ccc(C(=O)Nc4ccc(CN5CCS(=O)(=O)CC5)cc4)cc3)cc2)[nH]1)C(C)C [Example 3, Methyl N-[(1S)-1-[(2S)-2-[5-[4-[4-[[4-[(1,1-dioxo-1,4-thiazinan-4-yl)methyl]phenyl]carbamoyl]phenyl]phenyl]-1H-imidazol-2-yl]pyrrolidine-1-carbonyl]-2-methyl-propyl]carbamate]	>25	6.46	6.46
COC(=O)N[C@H](C(=O)N1CCC[C@H]1c1ncc(-c2ccc(-c3ccc(C(=O)Nc4ccc(CN5CCS(=O)(=O)CC5)cc4)cc3)c(C)c2)[nH]1)C(C)C [Example 54, Methyl N-[(1S)-1-[(2S)-2-[5-[4-[4-[[4-[(1,1-dioxo-1,4-thiazinan-4-yl)methyl]phenyl]carbamoyl]phenyl]-3-methyl-phenyl]-1H-imidazol-2-yl]pyrrolidine-1-carbonyl]-2-methyl-propyl]carbamate]	>25	9.38	9.33
